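Interpolation was linear, between the two tested concentrations surrounding the appropriate level; five concentrations were tested over 48 hours in 96-well plates. Abbreviation: GI50, concentration required for 50% inhibition of growth. Definition used: TGI = concentration required for complete inhibition of growth.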 Some results are limits rather than exact numbers.

What all share (experiment): NCI tumour cell line growth inhibition, 48 h
Test [1] has as its system NCI-H460 lung.
In test [2] the test system is K-562 leukemia.
The subject of test [3] is OVCAR-4 ovarian.
Test [4] relates to SF-268 CNS.
Test [5] deals with SNB-19 CNS.
For test [6], the system named is COLO 205 colon.
Test [7] has as its system SF-539 CNS.
Test [8] relates to HCC-2998 colon.
Test [9] has as its system ACHN renal.
The test system of test [10] is M14 melanoma.

Consider `CCOC(=O)NC/C=C/COC1CCCCO1` (stereo not given), for which the TGI in test [1], in [2], in [3], in [4], in test [5] and in test [6] was more than 100 µM each time. For the same compound, the TGI in [7], in test [8], in test [9] and in test [10] was more than 100 µM in each case.
Consider `CN(C)CCCCC(C(=O)CBr)(c1ccccc1)c1ccccc1`, for which the GI50 is 6.36 µM in test [1]; 2.08 µM in test [2]; 1.54 µM in [3]; 3.89 µM in test [4]; 7.43 µM in test [5]; 1.78 µM in test [6]. The GI50 in test [7] was 2.57 µM; in [8], 2.44 µM; in [9], 1.48 µM; in test [10], 1.5 µM. Further, the TGI in test [1] came out at 23 µM; in test [2], 5.48 µM; in test [3], 7.88 µM; in [4], 15.8 µM; in [5], 23.9 µM; in test [6] it was 3.95 µM. Besides, the TGI in test [7] was found to be 6.84 µM; in test [8], 5.55 µM; in [9] it was 3.03 µM; in [10] it was 3.95 µM.
With `COc1cc(/C(=C2/O[C@@H]([C@H]3COC(C)(C)O3)[C@H]3OC(C)(C)O[C@@H]23)c2ccc3ccccc3c2)cc(OC)c1OC`, the GI50 was 4.1 µM in test [1]; 4.02 µM in test [2]; 2.82 µM in test [3]; 3.13 µM in [4]; 2.49 µM in test [5]; 6.97 µM in test [6]. The GI50 in [7] is 14.3 µM; in test [8], 6.47 µM; in [9], 4.4 µM; in test [10], 6.7 µM. Besides, the TGI in test [1] was more than 100 µM; in test [2], more than 100 µM; in test [3] it was 8.02 µM; in [4], 15.9 µM; in [5] it was 6.08 µM; in test [6] it was more than 100 µM. For the same compound, the TGI was 79 µM in [7], more than 100 µM in test [8], more than 100 µM in [9] and 23.8 µM in test [10].
On to `COc1cccc(/C=N/NC(=O)c2ccccc2N2CCCC2)c1O`, for which the GI50 in test [1] was 3.25 µM; in test [2], 5.45 µM; in test [3], 2.63 µM; in test [4], 6.46 µM; in test [5] it was 8.93 µM; in test [6], 3.03 µM. The GI50 in [7] is 3.73 µM; in test [8], 47 µM; in [9] it was 2.72 µM; in [10] it was 3.08 µM. The TGI in test [1] was 52 µM; in test [2], more than 100 µM; in [3], more than 100 µM; in [4] it was more than 100 µM; in test [5], more than 100 µM; in test [6], more than 100 µM. For the same compound, the TGI is 24.1 µM in [7], more than 100 µM in test [8], more than 100 µM in [9] and 24.2 µM in [10].
Regarding `COc1ccc(Nc2cc(C)nc(NCc3ccccc3)n2)cc1`, the GI50 in [1] was 4.09 µM; in test [2], 2.69 µM; in test [3], 2.42 µM; in test [4] it was 13.1 µM; in [5] it was 5.02 µM; in [6], 2.08 µM. Besides, the GI50 in test [7] was 4.24 µM; in [8] it was 2.02 µM; in test [9], 4.44 µM; in test [10], 2.11 µM. Besides, the TGI was 17.6 µM in test [1]; 15.3 µM in test [2]; 19.3 µM in test [3]; 36.3 µM in test [4]; 28.8 µM in test [5]; 4.4 µM in test [6]. Moreover, the TGI in [7] stood at 16.7 µM; in test [8], 4.04 µM; in test [9] it was 17.7 µM; in [10], 7.52 µM.
Turning to `CCCCCCCCCCCC(=O)N1CCN(C(C)=O)CC1`, the GI50 in [1] was 19.8 µM; in [2] it was 22.9 µM; in [3], 32.8 µM; in test [4] it was 39.8 µM; in test [5] it was 19.3 µM; in test [6], 18.1 µM. The GI50 in test [7] is 18 µM; in [8], 14.8 µM; in test [9], 62.1 µM; in test [10], 17.6 µM. In addition, the TGI is 38.1 µM in test [1]; 59.7 µM in test [2]; more than 100 µM in test [3]; more than 100 µM in test [4]; 40 µM in test [5]; 33.6 µM in test [6]. Also, the TGI is 32.4 µM in test [7], 28.1 µM in test [8], more than 100 µM in test [9] and 33 µM in test [10].
For `O=C(OC1CCC2OOC1O2)c1ccc([N+](=O)[O-])cc1` (stereo not given), the TGI in [1], in test [2], in test [3], in test [4], in [5] and in test [6] was more than 100 µM throughout. The TGI in test [7], in [8], in [9] and in [10] was more than 100 µM each time.

Source of the values: PubChem BioAssay (NCI).
